# Test results reported in ChEMBL document CHEMBL1146472, “Cytotoxic cyclotides from Viola tricolor” (J Nat Prod, 2004).
# Where a SMILES comes first, the peptide text is derived from it. Bridges are numbered along the chain shown (N, C = ends).
# What was measured:
# U-937/GTB = assay: Cytotoxicity against human U937/GTB cells after 72 hrs by trypan blue exclusion method; format: functional, cell-based
# RPMI-8226 = assay: Cytotoxicity against human RPMI8226/S cells after 72 hrs by trypan blue exclusion method; format: functional, cell-based
compound,measurement,setting,value
CC(C)C[C@@H]1NC(=O)CNC(=O)[C@H](CC(N)=O)NC(=O)[C@H](CCCNC(=N)N)NC(=O)[C@H]([C@@H](C)O)NC(=O)[C@@H]2CSSC[C@@H]3NC(=O)[C@H]([C@@H](C)O)NC(=O)CNC(=O)CNC(=O)[C@H](C(C)C)NC(=O)[C@@H](NC(=O)[C@@H](NC(=O)[C@H](CCC(=O)O)NC(=O)CN)[C@@H](C)O)CSSC[C@H](NC(=O)[C@H](CO)NC(=O)[C@H](CSSC[C@@H](C(=O)O)NC(=O)[C@H](C(C)C)NC(=O)[C@@H]4CCCN4C1=O)NC(=O)CNC(=O)[C@@H]1CCCN1C(=O)[C@H]([C@@H](C)O)NC(=O)[C@H](CC(N)=O)NC3=O)C(=O)N[C@@H](CO)C(=O)N[C@@H](Cc1c[nH]c3ccccc13)C(=O)N1CCC[C@H]1C(=O)N[C@@H](C(C)C)C(=O)N2,IC50,"U-937/GTB; Homo sapiens, U-937/GTB, 72 h",6 µM
same,IC50,"RPMI-8226; Homo sapiens, RPMI8226/S, 72 h",3 µM
CC[C@H](C)[C@@H]1NC(=O)[C@@H]2CCCN2C(=O)[C@H](CC(C)C)NC(=O)CNC(=O)[C@H](CC(N)=O)NC(=O)[C@H](CCCNC(=N)N)NC(=O)[C@H]([C@@H](C)O)NC(=O)[C@@H]2CSSC[C@@H]3NC(=O)[C@H]([C@@H](C)O)NC(=O)CNC(=O)CNC(=O)[C@H](C(C)C)NC(=O)[C@@H](NC(=O)[C@@H](NC(=O)[C@H](CCC(=O)O)NC(=O)CN)[C@@H](C)O)CSSC[C@H](NC(=O)[C@H](CO)NC(=O)[C@H](CSSC[C@@H](C(=O)O)NC1=O)NC(=O)CNC(=O)[C@@H]1CCCN1C(=O)[C@H]([C@@H](C)O)NC(=O)[C@H](CC(N)=O)NC3=O)C(=O)N[C@@H](CO)C(=O)N[C@@H](Cc1c[nH]c3ccccc13)C(=O)N1CCC[C@H]1C(=O)N[C@@H](C(C)C)C(=O)N2 (stereo in doubt; form 1),IC50,"U-937/GTB; Homo sapiens, U-937/GTB, 72 h",4 µM
same,IC50,"RPMI-8226; Homo sapiens, RPMI8226/S, 72 h",4 µM
CC[C@H](C)[C@@H]1NC(=O)[C@@H]2CCCN2C(=O)[C@H](CC(C)C)NC(=O)CNC(=O)[C@H](CC(N)=O)NC(=O)[C@H](CCCNC(=N)N)NC(=O)[C@H]([C@@H](C)O)NC(=O)[C@@H]2CSSC[C@@H]3NC(=O)[C@H]([C@@H](C)O)NC(=O)CNC(=O)CNC(=O)[C@H](C(C)C)NC(=O)[C@@H](NC(=O)[C@@H](NC(=O)[C@H](CCC(=O)O)NC(=O)CN)[C@@H](C)O)CSSC[C@H](NC(=O)[C@H](CO)NC(=O)[C@H](CSSC[C@@H](C(=O)O)NC1=O)NC(=O)CNC(=O)[C@@H]1CCCN1C(=O)[C@H]([C@@H](C)O)NC(=O)[C@H](CC(N)=O)NC3=O)C(=O)N[C@@H](CO)C(=O)N[C@@H](Cc1c[nH]c3ccccc13)C(=O)N1CCC[C@H]1C(=O)N[C@@H](C(C)C)C(=O)N2 (stereo in doubt; form 2),IC50,U-937/GTB; u-937/gtb,7 µM
same,IC50,RPMI-8226; rpmi8226/s,6 µM
"CC[C@H](C)[C@@H]1NC(=O)[C@H](C)NC(=O)[C@H](CO)NC(=O)[C@H](CO)NC(=O)[C@H]([C@@H](C)CC)NC(=O)[C@@H]2CSSC[C@@H]3NC(=O)[C@H](C(C)C)NC(=O)[C@H](CCCCN)NC(=O)[C@H](CO)NC(=O)[C@H](CCCCN)NC(=O)[C@H](CSSC[C@H](NC(=O)[C@H](CO)NC(=O)[C@H](CCC(=O)O)NC(=O)CN)C(=O)N[C@@H](C(C)C)C(=O)N[C@@H](Cc4c[nH]c5ccccc45)C(=O)N[C@@H]([C@@H](C)CC)C(=O)N4CCC[C@H]4C(=O)N2)NC(=O)[C@H](CO)NC(=O)[C@H](CSSC[C@@H](C(=O)O)NC(=O)[C@@H]2CCCN2C(=O)[C@H]([C@@H](C)CC)NC(=O)CNC(=O)[C@H](CC(N)=O)NC(=O)[C@H](CCCNC(=N)N)NC(=O)[C@H](Cc2ccc(O)cc2)NC3=O)NC(=O)CNC1=O [CYCLOVIOLACIN O2] (H-GESCVWIPCISSAIGCSCKSKVCYRNGIPC-OH; disulfide 4-18, 9-23, 16-30)",IC50,"U-937/GTB; Homo sapiens, U-937/GTB, 72 h",0.3 µM
same,IC50,"RPMI-8226; Homo sapiens, RPMI8226/S, 72 h",0.1 µM
COc1cccc2c1C(=O)c1c(O)c3c(c(O)c1C2=O)C[C@@](O)(C(=O)CO)C[C@@H]3O[C@H]1C[C@H](N)[C@H](O)[C@H](C)O1 [DOXORUBICIN],IC50,"U-937/GTB; Homo sapiens, U-937/GTB, 72 h",0.1 µM
same,IC50,"RPMI-8226; Homo sapiens, RPMI8226/S, 72 h",0.1 µM
"CC[C@H](C)[C@@H]1NC(=O)[C@H](C)NC(=O)[C@H](CO)NC(=O)[C@H]([C@@H](C)O)NC(=O)[C@H]([C@@H](C)CC)NC(=O)[C@@H]2CSSC[C@@H]3NC(=O)[C@H](C(C)C)NC(=O)[C@H](CCCCN)NC(=O)[C@H](CO)NC(=O)[C@H](CCCCN)NC(=O)[C@H](CSSC[C@H](NC(=O)[C@H](CO)NC(=O)[C@H](CCC(=O)O)NC(=O)CN)C(=O)N[C@@H](C(C)C)C(=O)N[C@@H](Cc4c[nH]c5ccccc45)C(=O)N[C@@H]([C@@H](C)CC)C(=O)N4CCC[C@H]4C(=O)N2)NC(=O)[C@H](CO)NC(=O)[C@H](CSSC[C@@H](C(=O)O)NC(=O)[C@@H]2CCCN2C(=O)[C@H]([C@@H](C)CC)NC(=O)CNC(=O)[C@H](CC(N)=O)NC(=O)[C@H](CCCNC(=N)N)NC(=O)[C@H](Cc2ccc(O)cc2)NC3=O)NC(=O)CNC1=O [VITRI A] (H-GESCVWIPCITSAIGCSCKSKVCYRNGIPC-OH; disulfide 4-18, 9-23, 16-30)",IC50,"U-937/GTB; Homo sapiens, U-937/GTB, 72 h",0.6 µM
same,IC50,"RPMI-8226; Homo sapiens, RPMI8226/S, 72 h",1 µM
